Data reported in US9446130B2, “BTK inhibitors” (MERCK SHARP & DOHME CORP., priority 2013, dated 2016).

Target: BTK enzyme (hBTK, full-length recombinant) (Homo sapiens (Human), UniProt Q06187)
Assay: Btk enzyme activity assay, Method A: IMAP-FP
Type: biochemical
Details: 5 μM ATP, 60 minute compound & enzyme incubation
Text: Inhibition of kinase activity can be measured using the Immobilized Metal Assay for Phosphochemicals (IMAP) assay. IMAP is a homogeneous fluorescence polarization (FP) assay based on affinity capture of phosphorylated peptide substrates. IMAP uses fluorescein-labeled peptide substrates that, upon phosphorylation by a protein kinase, bind to so-called IMAP nanoparticles, which are derivatized with trivalent metal complexes. Binding causes a change in the rate of the molecular motion of the peptide, and results in an increase in the FP value observed for the fluorescein label attached to the substrate peptide (Gaudet et al. A homogeneous fluorescence polarization assay adaptable for a range of protein serine/threonine and tyrosine kinases. J. Biomol. Screen (2003) 8, 164-175).
BTK enzymatic activity was determined in an IMAP-FP assay (Immobilized Metal ion Affinity-based fluorescence Polarization; Molecular Devices). […] Plates were read on Packard microplate reader after 60 minutes binding equilibration using Fluorescence Polarization protocol. Specifically, fluorescence at 535 nm is measured using emission filters oriented both parallel and perpendicular to the polarized excitation filter. This allows detection of changes in Fluorescence Polarization due to binding of the phosphorylated substrate peptide to the beads. […]

Chain of BTK enzyme (hBTK, full-length recombinant) (Q06187 whole entry): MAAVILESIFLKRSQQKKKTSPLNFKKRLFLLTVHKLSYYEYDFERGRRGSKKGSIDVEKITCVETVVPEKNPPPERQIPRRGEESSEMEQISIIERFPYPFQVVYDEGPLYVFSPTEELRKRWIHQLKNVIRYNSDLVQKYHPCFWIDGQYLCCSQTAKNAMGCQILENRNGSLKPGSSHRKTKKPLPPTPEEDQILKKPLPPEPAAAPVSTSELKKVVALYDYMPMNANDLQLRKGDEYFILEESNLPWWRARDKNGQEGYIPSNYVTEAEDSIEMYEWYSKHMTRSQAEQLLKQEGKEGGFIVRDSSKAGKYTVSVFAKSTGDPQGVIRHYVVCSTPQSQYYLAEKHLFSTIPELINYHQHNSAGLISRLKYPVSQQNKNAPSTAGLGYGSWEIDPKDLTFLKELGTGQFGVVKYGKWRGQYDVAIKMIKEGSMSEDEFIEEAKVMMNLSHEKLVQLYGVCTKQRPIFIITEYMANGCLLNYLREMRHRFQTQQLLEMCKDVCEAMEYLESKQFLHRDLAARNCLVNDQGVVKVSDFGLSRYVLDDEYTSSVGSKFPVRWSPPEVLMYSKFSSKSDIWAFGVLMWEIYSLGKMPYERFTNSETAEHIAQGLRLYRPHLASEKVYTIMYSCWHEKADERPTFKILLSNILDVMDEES

| Compound | IC50 |
| --- | --- |
| CCn1ncc2c1CCCC2(O)c1nc(-c2ccc(C(=O)Nc3cc(C(F)(F)F)ccn3)cc2)c2c(N)nccn12 (centres unmarked) [Example 4, 4-(8-amino-3-(1-ethyl-4-hydroxy-4,5,6,7-tetrahydro-1H-indazol-4-yl)imidazo[1,5-a]pyrazin-1-yl)-N-(4-(trifluoromethyl)pyridin-2-yl)benzamide] | 12 nM |
| Cn1ncc2c1CCCC2(O)c1nc(-c2ccc(C(=O)Nc3cc(C(F)(F)F)ccn3)cc2)c2c(N)nccn12 (centres unmarked) [Example 1, 4-(8-amino-3-(4-hydroxy-1-methyl-4,5,6,7-tetrahydro-1H-indazol-4-yl)imidazo[1,5-a]pyrazin-1-yl)-N-(4-(trifluoromethyl)pyridin-2-yl)benzamide] | 7.2 nM |
